Data published in patent EP4741401A1, “BENZOTHIAZOIMIDAZOLYL COMPOUND AND USE THEREOF” (ER Stress Research Institute, Inc., priority 2023, dated 2025).

Key:
[1] = test system: cell growth inhibition by endoplasmic reticulum stress; conditions: from WO2019/131656A; read-out: 50% inhibitory concentration for cell growth inhibition by endoplasmic reticulum stress; cited from earlier work
293A cells = test: Cytoprotection under endoplasmic reticulum stress conditions (Tm-induced cell death); assay type: cell-based; conditions: compound concentration inhibiting Tm-induced cell death by 50%, Tm 0.2 µg/mL, reporter cells
Procedure: The reporter cells same as those used in Example 1 were placed in each well of a 96-well assay plate and were treated with Tm at a final concentration of 0.2 µg/mL and the test compound. […]

[2] = test system: endoplasmic reticulum stress response induced by Tm; test: Suppression of endoplasmic reticulum stress response (ERSE2-UPRE-AARE-EGFP reporter fluorescence); assay type: cell-based; conditions: 293A reporter cells, incubated at 37°C overnight, read-out: Suppression rank of endoplasmic reticulum stress response
Procedure: A solution of the compound synthesized in "(1) Synthesis of benzothiazoimidazolyl compound" was appropriately diluted with a DMEM solution containing 10% fetal bovine serum (FBS), and the diluted solution was added to a 384-well assay plate at 10 µL/well. Next, 30 µL of a culture medium containing the reporter cells and 10 µL of the Tm solution were mixed, and the mixture was added to the 384-well assay plate at 40 µL/well such that the cell density was 18 × 10^3 cells/well, and the whole was incubated at 37°C overnight.
A multi-plate reader Citation 3 (Bio-Tek) was used to determine the EGFP fluorescence intensity (excitation wavelength: 485 nm, fluorescence wavelength: 528 nm) when the test compound was added. A smaller fluorescence intensity indicates more suppression of the increase in activity of the endoplasmic reticulum stress marker induced by Tm.
A "control" containing the Tm solution and, in place of the test compound solution, an equal volume of DMSO was subjected to the measurement of fluorescence intensity in a similar manner. In addition, a "background" containing a solution prepared in the same manner as for the Tm solution except that no Tm was added and containing, in place of the test compound solution, an equal volume of DMSO was subjected to the measurement of fluorescence intensity in a similar manner.
The fluorescence intensity was determined while the concentration of the test compound was varied, and the 50% effective concentration (IC50) of suppressing the endoplasmic reticulum stress response induced by Tm was calculated.

FNDI model mice = test: Number of mutant protein aggregates (inclusion bodies) in vasopressin neurons of brain tissue; assay type: in vivo; conditions: oral, 100 mg/kg/day, once daily for 28 days, inclusion bodies of 4.5 µm or more in vasopressin neurons
Procedure: To FNDI model mice, the above IBT-30-containing preparation was forcibly administered orally once daily for 28 days such that the dosage of IBT-30 was 100 mg/kg/day (n=6). In a similar manner, a vehicle preparation free from IBT-30 was forcibly administered orally (n=6). […]

[3] = test system: Familial neurogenic diabetes insipidus model mice; test: Suppression of urine output increase in FNDI model mice; assay type: in vivo; conditions: oral, 30 mg/kg/day or 100 mg/kg/day, once daily for 28 days
Procedure: Familial neurogenic diabetes insipidus model mice created by Arima et al. at Nagoya University and carrying a knock-in mutation (Cys98stop) in the neurophysin II gene that causes familial neurogenic diabetes insipidus (FNDI) in humans (Am J Physiol Regul Integr Comp Physiol 2009 296:R1641-9) were divided into two groups. To each group, an IBT-30-containing preparation was forcibly administered orally such that the dosage of IBT-30 was 30 mg/kg/day or 100 mg/kg/day (n=6). The IBT-30-containing preparation was prepared as a suspension of IBT-30 at a final concentration of 0.5% by weight in carboxymethyl cellulose. The oral administration was performed once daily via a feeding tube for 28 days. The urine output was measured daily throughout the 28 days when IBT-30 was administered.

[4] = test system: endogenous molecular chaperones; test: Induction of endogenous molecular chaperones in cells; assay type: cell-based; conditions: applied to cells

IC50 [2] [µM]	Compound	IC50 [1] [µM]	IC50 (293A cells) [µM]	number of inclusion bodies (mutant protein aggregates) (FNDI model mice)	urine output [3]	induction of endogenous molecular chaperones [4]
–	O=C(O)CCCc1ccccc1 [Compound 4-PBA, 4-phenylbutyric acid, reference compound]	5400	4000	–	–	–
–	CCCC(=O)NCCc1csc(-c2ccc(Cl)cc2)n1 [azoramide]	86	–	–	–	–
–	C[C@H](CCC(=O)NCCS(=O)(=O)O)[C@H]1CC[C@H]2[C@@H]3[C@@H](O)C[C@@H]4C[C@H](O)CC[C@]4(C)[C@H]3CC[C@]12C [TUDCA, tauroursodeoxycholic acid, reference compound]	2100	20	–	–	–
0.1 to 1	CS(=O)(=O)c1ccc2c(c1)sc1nc(-c3ccccc3)cn12 [IBT-21, reference compound]	0.61	0.61	–	–	–
> 1	CC(C)(C)OC(=O)NCCOCCOCCOc1cccc(-c2cn3c(n2)sc2cc(S(C)(=O)=O)ccc23)c1 [IBT-76, tert-butyl (2-(2-(2-(3-(7-(methylsulfonyl)benzo[d]imidazo[2,1-b]thiazol-2-yl)phenoxy)ethoxy)ethoxy)ethyl)carbamate]	–	4.9	–	–	–
≤ 0.01	COc1cc(-c2cn3c(n2)sc2cc(S(C)(=O)=O)ccc23)ccc1C(F)(F)F [IBT-30, 2-(3-Methoxy-4-(trifluoromethyl)phenyl)-7-(methylsulfonyl)benzo[d]imidazo[2,1-b]thiazole]	–	0.004	significantly reduced	decreases in a dose-dependent manner	not induced
0.1 to 1	CS(=O)(=O)c1ccc2c(c1)sc1nc(-c3ccc(Cl)cc3Cl)cn12 [IBT-44, 2-(2,4-dichlorophenyl)-7-(methylsulfonyl)benzo[d]imidazo[2,1-b]thiazole]	–	0.45	–	–	–
